Measured values reported in article PMC9510126, “Hydrophobicity is a key determinant in the activity of arginine-rich cell penetrating peptides” (Scientific Reports, 2022).
Ends that are not written are not given here. * marks the point of attachment. carboxyfluorescein = carboxyfluorescein fluorophore coupled to the lysine ε-amine; DEAC = CCN(CC)c1ccc2cc(C(=O)*)c(=O)oc2c1

Legend:
[1] = tested on: MDA-MB-231 cells; experiment: Staining of endosomes with LysoTracker (puncta per cell); format: cell-based, human; conditions: for lysotracker stained puncta, control agents: MDA-MB-231, LLOME 1 mM 10 min, bafilomycin 1 µM 4 h; for lysotracker-positive puncta per cell 12 h after incubation: MDA-MB-231, 1 h with peptide 1.5 μM, then 12 h in DMEM; for lysotracker stained endosomes (puncta per cell) immediately after incubation: MDA-MB-231, 1 h with peptide (X = K(Ac), WW, FFLIP at 10, 1.5, 1.5 μM), LysoTracker Green DND-26 500 nM 5 min, biological triplicates
Protocol: Given that hydrophobicity of the d(X)TAT peptides appears to contribute to their membrane permeation activities, we next sought to establish whether this relationship could be recapitulated with membrane models, i.e. lipid bilayers. To establish which membrane system to test, we first aimed to test whether d(X)TAT peptides generally recapitulate the mechanism of cell entry previously determined with dfTAT. For this purpose, the delivery of TMR-k5 was performed in cells transfected with dominant-negative (DN) rab7(T22N), a protein that disrupts trafficking from early endosomes to late endosomes[29],[30]. For these experiments, d(WW)TAT and d(FFLIP)TAT were chosen as two “high activity/hydrophobicity” d(X)TAT representatives. […] In this case, approximately 5% of cells remained positive for TMR-k5 nuclear staining. […] To further probe the cell penetration mechanism, the number of endosomal organelles stained by Lysotracker in cells before and after delivery was quantified. The rationale behind this assay is that lysotracker accumulates in acidified organelles, typically late endosomes and lysosomes, that endosomal membrane leakage causes an increase of endosomal pH (presumably via leakage of luminal H^+ into the cytosol), and that, consequently, endosomes rendered potentially leaky by d(X)TAT peptides will not be stained by lysotracker.
For the quantification of acidic vesicles, cells were treated with LysoTracker Green DND-26 (500 nM) for 5 min. Alternatively, cells were pretreated with L-Leu-L-Leu methyl ester (LLOME; Sigma-Aldrich) incubated at 1 mM for 10 min, or bafilomycin (Sigma-Aldrich) at 1 µM for 4 h, and then stained with LysoTracker. Likewise, cells were pretreated with d(X)TAT peptides (X = K(Ac), WW, or FFLIP at 10, 1.5, and 1.5 μM) for 1 h. Cells were then washed an stained with LysoTracker immediately or after 12 h incubation in DMEM. For all conditions, fluorescence microscopy images were acquired using the 100× objective on an Olympus IX-81 microscope. ImageJ was used to calculate the number of LysoTracker-stained puncta per cell, as well as the area of each individual puncta. This analysis was performed for 50 cells imaged for each condition and reproduced in biological triplicates.

[2] = tested on: MDA-MB-231 cells; experiment: Delivery of TMR-k5 probe into live cells (nuclear staining); format: cell-based, human; conditions: 1 h, biological triplicates; for TMR-k5 delivery activity (cells with TMR-k5 nuclear staining): MDA-MB-231, d(X)TAT at various concentrations + TMR-k5 20 μM, fluorescence microscopy; for d(X)TAT concentration at which delivery is achieved in a high percentage of cells: MDA-MB-231, TMR-k5 20 μM
Text: To test the relative delivery efficiency of the d(X)TAT peptides, the cell lines MDA-MB-231 (epithelial-like, human breast cancer, spindle-shaped) and Neuro-2a (mouse neuroblastoma with neuronal and amoeboid stem cell morphology) were chosen. These cell lines are routinely used in cancer research, neuroscience, and toxicology. In the context of this study, we rationalized that the distinct differences in origin and characteristics between MDA-MB-231 and Neuro-2a properties may be useful to assess the generality of the results obtained. MDA-MB-231 or Neuro-2a cells were incubated with d(X)TAT peptides at various concentrations and TMR-k5 (20 μM) for 1 h. Cells were then washed, incubated with the DNA stain Hoechst and the live/dead marker SYTOX green (or SYTOX blue), and imaged by fluorescence microscopy. The localization of TMR-k5 in individual nuclei was then assessed by measuring the overlap between TMR and Hoechst signals (Fig. 2, Figure S13). […] This is because, in our experience, dfTAT and dfTAT analogs display a threshold behavior where, below a certain endosomal concentration, endosomal leakage is not achieved. In contrast above this threshold most late endosomes are permeabilized. […] Our rationale was therefore to titrate cells with different concentrations of d(X)TAT agents, monitor how many cells display cytosolic/nuclear delivery of TMR-k5, and compare the different d(X)TAT peptides.
MDA-MB-231 and Neuro2a cells obtained from ATCC (breast cancer-derived epithelial) were cultured in humidified atmosphere at 5% CO2 and 37 °C. Cells were seeded in plastic 48-well plates (Fisher) for quantitative analysis or 8-well Labtek II plates (Fisher) for qualitative imaging at 100× magnification. The cells were grown to 80–90% confluency in a 37 °C humidified atmosphere containing 5% CO2. Cells were washed three times with Leibovitz’s L15 media (L15) (Fisher). Cells were then incubated with peptide and 20 µM of the TMR-k5 pentalysine probe at 37 °C for 1 h. This was followed by washing the cells three times with L15 supplemented with heparin (Sigma-Aldrich) (1 mg/mL) and an extra L15 wash. […] Additionally, the cell permeable dye Hoechst 33342 (Thermo Fisher Scientific o) was used for nuclear staining. Cells were imaged using an EVOS FL Auto 2 inverted microscope (Thermo Fisher Scientific). The microscope is equipped with a heating chamber maintained at 37 °C. Images were acquired using bright field imaging and five fluorescence filter sets: CFP (Ex = 436 ± 10 nm, Em = 480 ± 20 nm), RFP (Ex = 560 ± 20 nm, Em = 630 ± 35 nm), FITC (Ex = 488 ± 10 nm Em = 520 ± 20 nm), DAPI (Ex = 350 ± 50 nm, Em = 460 ± 25 nm), […]. For image viewing and processing individual images, the Celleste 4.0 software (Thermo Fisher Scientific) was used. Nuclear regions in 20× images where identified using Hoechst staining (the quantification process is described in Figure S13). The intensity of these objects in the TMR channel was then determined using the Celleste software. Cells stained by the SYTOX or DRAQ dyes were considered dead and not counted as positive for delivery. Cells displaying a nuclear TMR-k5 fluorescence above the fluorescence threshold determined for TMR-k5 alone were considered positive for delivery (if excluding SYTOX or DRAQ7 stain, and if visually showing stained nucleoli for confirmation of intracellular localization). The percentage of cells positive for TMR-k5 nuclear staining was then calculated, using Hoechst-stained cells to count the total number of cells present. […] Instead, this assay quantifies the number of cells in which the nuclear fluorescence of TMR-k5 is above a detection threshold. This threshold is dependent on the microscope, imaging conditions, and the concentration of TMR-k5 used during incubation (Figure S13). The reproducibility of all the experiments was assessed by performing experiments with independent batches of cell cultures on three different days (i.e., biological triplicates). […]

[3] = tested on: Neuro-2a cells; experiment: Delivery inhibition with dominant negative rab7 or CytoD; format: cell-based, mouse; conditions: for cells with TMR-k5 delivery, EGFP-DN-rab7 transfected / nuclear staining of delivered TMR-k5 in cells transfected with EGFP-DN-rab7: Neuro-2a (Fig. 4A), TMR-k5 20 μM, 1 h; for nuclear staining of delivered TMR-k5 in cells transfected with EGFP-DN-rab7: biological triplicates; for cells positive for TMR-k5 nuclear staining in the presence of cytochalasin D / delivery of TMR-k5 in the presence of cytochalasin D: cytoD 20 μM, 30 min pre-incubation and present during 1 h delivery

COC(=O)[C@H](CC(C)C)NC(=O)[C@@H](N)CC(C)C [LLOME, L-Leucine-L-Leucine methyl ester, reference compound]
lysotracker stained puncta, control agents [1]: reduced the number of lysotracker stained puncta

CO/C1=C\C(C)=C\[C@@H](C)[C@@H](O)[C@@H](C)C/C(C)=C/C=C/[C@H](OC)[C@@H]([C@@H](C)[C@@H](O)[C@H](C)[C@@]2(O)C[C@@H](O)[C@H](C)[C@@H](C(C)C)O2)OC1=O [bafilomycin, reference compound]
lysotracker stained puncta, control agents [1]: reduced the number of lysotracker stained puncta

d(F)TAT: disulfide dimer of CXRKKRRQRRRG with X = F (CFRKKRRQRRRG-NH2; also: disulfide dimer)
TMR-k5 delivery activity (cells with TMR-k5 nuclear staining) [2]: little to no TMR-k5 delivery is detected

d(FFLIP)TAT: disulfide dimer of CXRKKRRQRRRG with X = FFLIP (penetration accelerating sequence, Pas)
d(X)TAT concentration at which delivery is achieved in a high percentage of cells [2]: < 3 µM
cells with TMR-k5 delivery, EGFP-DN-rab7 transfected [3]: 20%
nuclear staining of delivered TMR-k5 in cells transfected with EGFP-DN-rab7 [3]: markedly reduced
cells positive for TMR-k5 nuclear staining in the presence of cytochalasin D [3]: approximately 5%
delivery of TMR-k5 in the presence of cytochalasin D [3]: significantly reduced
lysotracker-positive puncta per cell 12 h after incubation [1]: restored to control level
lysotracker stained endosomes (puncta per cell) immediately after incubation [1]: caused a reduction in lysotracker stained endosomes

d(K(DEAC))TAT: disulfide dimer of CXRKKRRQRRRG with X = lysine conjugated to 7-diethylaminocoumarin-3-carboxylic acid (CK(DEAC)RKKRRQRRRG-NH2; also: disulfide dimer)
d(X)TAT concentration at which delivery is achieved in a high percentage of cells [2]: < 3 µM

d(K(Fl))TAT: disulfide dimer of CXRKKRRQRRRG with X = lysine conjugated to carboxyfluorescein (CK(carboxyfluorescein)RKKRRQRRRG-NH2; also: disulfide dimer)
d(X)TAT concentration at which delivery is achieved in a high percentage of cells [2]: > 5 µM

d(LL)TAT: disulfide dimer of CXRKKRRQRRRG with X = LL
d(X)TAT concentration at which delivery is achieved in a high percentage of cells [2]: > 5 µM

d(W)TAT: disulfide dimer of CXRKKRRQRRRG with X = W (CWRKKRRQRRRG-NH2; also: disulfide dimer)
TMR-k5 delivery activity (cells with TMR-k5 nuclear staining) [2]: little to no TMR-k5 delivery is detected

d(WW)TAT: disulfide dimer of CXRKKRRQRRRG with X = WW
d(X)TAT concentration at which delivery is achieved in a high percentage of cells [2]: < 3 µM
cells with TMR-k5 delivery, EGFP-DN-rab7 transfected [3]: 20%
nuclear staining of delivered TMR-k5 in cells transfected with EGFP-DN-rab7 [3]: markedly reduced
cells positive for TMR-k5 nuclear staining in the presence of cytochalasin D [3]: approximately 5%
delivery of TMR-k5 in the presence of cytochalasin D [3]: significantly reduced
lysotracker-positive puncta per cell 12 h after incubation [1]: restored to control level
lysotracker stained endosomes (puncta per cell) immediately after incubation [1]: caused a reduction in lysotracker stained endosomes

d(Y)TAT: disulfide dimer of CXRKKRRQRRRG with X = Y (CYRKKRRQRRRG-NH2; also: disulfide dimer)
TMR-k5 delivery activity (cells with TMR-k5 nuclear staining) [2]: little to no TMR-k5 delivery is detected

d(YFIL)TAT: disulfide dimer of CXRKKRRQRRRG with X = YFIL
d(X)TAT concentration at which delivery is achieved in a high percentage of cells [2]: < 3 µM
